Data on 19 molecules can be found in patent US10413545B2, “Imidazolin-5-one derivative useful as FASN inhibitors for the treatment of cancer” (Janssen Pharmaceutica NV, priority 2013, dated 2019).

Holding throughout (type): cell-based
One assay deals with A2780 ovarian cells. Kind of assay: A2780 Ovarian Cell Proliferation Assay in Lipid Reduced Medium, with and without Palmitate (MTT). Conditions: Homo sapiens, 10% lipid-reduced serum, 96 h.
Assay [1] has as its system LNCaP_Vancouver prostate cells. As to the kind of experiment: In Vitro LNCaP Vancouver Prostate Cell Proliferation Assay in Lipid Reduced Medium. Conditions: Prostate cell; 10% lipid reduced serum, 96 h, ATP-glow luminescence; read-out: pIC50 LNCaP_Vancouver prostate cell (converted). The procedure:
LNCaP_Vancouver prostate cells were obtained from the Vancouver Prostate Cancer Centre.
The next day 10 μl of test compound/DMSO diluted in medium was added (3E-5M, 1E-5M, 3E-6M,1E-6M, 3E-7M, 1E-7M, 3E-8M, 1E-8M final concentration). Compounds were tested in duplicate. After 96 h incubation at 37° C., 5% CO2 25 μl ATP-glow mix was added. The plate was incubated for 30 min at 37° C. and luminescence was measured with the Envision.
Analysis: Determination of pIC50 Values
pIC50 values were calculated as follows. Raw data generated by the instruments were normalized to % Controlmin values, which were calculated as: % Controlmin=100*(x−mLC)/(mHC−mLC),
where mLC and mHC are the means of the low control wells and high control wells on the plate, after manual exclusion of outliers. The relation between the % Controlmin values and concentration was fitted to a 4-parameter logistic curve using a non-linear least squares regression method to determine the pIC50 value. Outlying data points were excluded manually to get a correct fit. The pIC50 corresponds to −log 10(IC50), if the IC50 is expressed in molar units (http://www.ncbi.nlm.nih.qovibooks/NBK91994). The IC50 parameter was always determined by non-linear regression, but one or more of the other parameters may have been held fixed on a relevant input value, such as 0 for the bottom values.

The test system of assay [2] is PC-3M-Luc-C6 prostate cells. Kind of assay: In Vitro PC-3M-Luc-C6 Prostate Cell Proliferation Assay in Lipid Reduced Medium. Conditions: Prostate cell, read-out: pIC50 PC-3M-Luc-C6 prostate cell (converted); 10% lipid reduced serum, 96 h, ATP-glow luminescence.
Where [3] appears, read: 25 μM palmitate added (control), read-out: pIC50 With Palmitate (converted).
Setting [4] is: no palmitate, read-out: pIC50 Without Palmitate (converted).

Like-named read-outs stand apart in the source and are kept apart here.

Regarding `COCC1(C)N=C(c2ccc(-c3ccc4c(cnn4C)c3)cc2)N(C[C@@H]2CCN(C(=O)C3CC3)C2)C1=O` (mixture of isomers) [Compound 10, (4RS)-1-(((R)-1-(cyclopropanecarbonyl)pyrrolidin-3-yl)methyl)-4-(methoxymethyl)-4-methyl-2-(4-(1-methyl-1H-indazol-5-yl)phenyl)-1H-imidazol-5(4H)-one], the IC50 is > 10000 nM with A2780 ovarian cells (setting [3]), ~741 nM in the assay with A2780 ovarian cells (setting [4]), 3630 nM in assay [1] and 933 nM in assay [2].
The corresponding values for `Cc1cc(-c2ccc3c(cnn3C)c2)ccc1C1=NC(C)(C)C(=O)N1CC1CN(C(=O)C2(C)CC2)C1` [Compound 77, 4,4-dimethyl-2-(2-methyl-4-(1-methyl-1H-1-indazol-5-yl)phenyl)-1-((1-(1-methylcyclopropanecarbonyl)azetidin-3-yl)methyl)-1H-imidazol-5(4H)-one] are > 10000 nM, 316 nM, 1170 nM and 112 nM.
In the same order, the values of `CC1(C)N=C(c2ccc(-c3ccc4cccnc4c3)cc2)N(C[C@@H]2CCN(C(=O)C3CC3)C2)C1=O` [Compound 23] are > 10000 nM, 75.9 nM, 219 nM and 53.7 nM.
In the same order, the values of `CC1(C)N=C(c2ccc(-c3ccc4cncnc4c3)cc2F)N(C[C@@H]2CCN(C(=O)C3CC3)C2)C1=O` [Compound 44, (R)-1-((1-(cyclopropanecarbonyl)pyrrolidin-3-yl)methyl)-2-(2-fluoro-4-(quinazolin-7-yl)phenyl)-4,4-dimethyl-1H-imidazol-5(4H)-one] are > 10000 nM, 46.8 nM, 389 nM and 47.9 nM.
On to `CC1(C)N=C(c2ccc(-c3nc4ccccc4o3)cc2F)N(C[C@@H]2CCN(C(=O)C3CC3)C2)C1=O` [Compound 51, (R)-2-(4-(benzo[d]oxazol-2-yl)-2-fluorophenyl)-1-((1-(cyclopropanecarbonyl)pyrrolidin-3-yl)methyl)-4,4-dimethyl-1H-imidazol-5(4H)-one], for which the IC50 in the assay on A2780 ovarian cells (setting [3]) was > 10000 nM; with A2780 ovarian cells (setting [4]), 288 nM; in assay [1], 794 nM; in assay [2] it was 324 nM.
The corresponding values for `CC1(C)N=C(c2ccc(-c3ccc(-c4ccncc4)cc3)cc2)N(C[C@@H]2CCN(C(=O)C3CC3)C2)C1=O` [Compound 15, (R)-1-((1-(cyclopropanecarbonyl)pyrrolidin-3-1)methyl)-4,4-dimethyl-2-(4′-(pyridin-4-yl)-[1,1′-biphenyl]-4-yl)-1H-imidazol-5(4H)-one] are > 10000 nM, 178 nM, 759 nM and 158 nM.
The corresponding values for `Cn1ncc2cc(-c3ccc(C4=NC(C)(C)C(=O)N4C[C@@H]4CCN(C(=O)C5(C)CC5)C4)c(F)c3)ccc21` [Compound 73, (R)-2-(2-fluoro-4-(1-methyl-1H-indazol-5-yl)phenyl)-4,4-dimethyl-1-((1-(1-methylcyclopropanecarbonyl)pyrrolidin-3-yl)methyl)-1H-imidazol-5(4H)-one] are > 10000 nM, 13.5 nM, 398 nM and 18.6 nM.
With `CC1(C)N=C(c2ccc(-c3ccc4cncnc4c3)cc2)N(C[C@@H]2CCN(C(=O)C3CC3)C2)C1=O` [Compound 42, (R)-1-((1-(cyclopropanecarbonyl)pyrrolidin-3-yl)methyl)-4,4-dimethyl-2-(4-(quinazolin-7-yl)phenyl)-1H-imidazol-5(4H)-one], the IC50 was > 10000 nM in the assay on A2780 ovarian cells (setting [3]), ~191 nM in the assay with A2780 ovarian cells (setting [4]), 1000 nM in assay [1] and 417 nM in assay [2].
The corresponding values for `CC1(C)N=C(c2ccc(-c3ccc4cccc(F)c4c3)cc2)N(C[C@@H]2CCN(C(=O)C3CC3)C2)C1=O` [Compound 41, (R)-1-((1-(cyclopropanecarbonyl)pyrrolidin-3-yl)methyl)-2-(4-(8-fluoronaphthalen-2-yl)phenyl)-4,4-dimethyl-1H-imidazol-5(4H)-one] are > 10000 nM, ~347 nM, 1150 nM and 417 nM.
Regarding `CC1(C)N=C(c2ccc(-c3ccc4cccc(F)c4c3)cc2F)N(C[C@@H]2CCN(C(=O)C3CC3)C2)C1=O` [Compound 67, (R)-1-((1-(cyclopropanecarbonyl)pyrrolidin-3-yl)methyl)-2-(2-fluoro-4-(8-fluoronaphthalen-2-yl)phenyl)-4,4-dimethyl-1H-imidazol-5(4H)-one], the IC50 with A2780 ovarian cells (setting [4]) is ~195 nM; in assay [1], 407 nM; in assay [2], 145 nM.
Regarding `CC1(C)N=C(c2ccc(-c3nc4ccccc4o3)cc2F)N(CC2CN(C(=O)C3CC3)C2)C1=O` [Compound 52, 2-(4-(benzo[d]oxazol-2-yl)-2-fluorophenyl)-1-((1-(cyclopropanecarbonyl)azetidin-3-yl)methyl)-4,4-dimethyl-1H-imidazol-5(4H)-one], the IC50 is > 10000 nM in the assay with A2780 ovarian cells (setting [3]), 708 nM with A2780 ovarian cells (setting [4]), 1290 nM in assay [1] and 776 nM in assay [2].
In the same order, the values of `CC1(C(=O)N2CC(CN3C(=O)C(C)(C)N=C3c3ccc(-c4ccc5cc(F)ccc5c4)cc3F)C2)CC1` [Compound 72, 2-(2-fluoro-4-(6-fluoronaphthalen-2-yl)phenyl)-4,4-dimethyl-1-((1-(1-methylcyclopropanecarbonyl)azetidin-3-yl)methyl)-1H-imidazol-5(4H)-one] are 7760 nM, ~25.7 nM, 295 nM and 26.9 nM.
The corresponding values for `CC1(C)N=C(c2ccc(-c3ccc4cccnc4c3)cc2F)N(CC2CN(C(=O)C3CC3)C2)C1=O` [Compound 39, 1-((1-(cyclopropanecarbonyl)azetidin-3-yl)methyl)-2-(2-fluoro-4-(quinolin-7-yl)phenyl)-4,4-dimethyl-1H-imidazol-5(4H)-one] are > 10000 nM, ~91.2 nM, 269 nM and 95.5 nM.
`CC1(C)N=C(c2ccc(-c3ccc4cccnc4c3)cc2)N(CC2CN(C(=O)C3CC3)C2)C1=O` [Compound 24, 1-((1-(cyclopropanecarbonyl)azetidin-3-yl)methyl)-4,4-dimethyl-2-(4-(quinolin-7-yl)phenyl)-1H-imidazol-5(4H)-one]: the IC50 in the assay on A2780 ovarian cells (setting [3]) was > 10000 nM; in the assay on A2780 ovarian cells (setting [4]) it was ~363 nM; in assay [1] it was 1450 nM; in assay [2], 447 nM.
The corresponding values for `Cc1cc(-c2ccc(-c3cnn(C)c3)cc2)ccc1C1=NC(C)(C)C(=O)N1CC1CN(C(=O)C2(C)CC2)C1` [Compound 87, 4,4-dimethyl-2-(3-methyl-4′-(1-methyl-1H-pyrazol-4-yl)-[1,1′-biphenyl]-4-yl)-1-((1-(1-methylcyclopropanecarbonyl)azetidin-3-yl)methyl)-1H-imidazol-5(4H)-one] are ~10000 nM, 11.7 nM, 178 nM and ~70.8 nM.
In the same order, the values of `CC1(C)N=C(c2ccc(-c3ccc4cccnc4c3)cc2F)N(C[C@@H]2CCN(C(=O)C3CC3)C2)C1=O` [Compound 49, (R)-1-((1-(cyclopropanecarbonyl)pyrrolidin-3-yl)methyl)-2-(2-fluoro-4-(quinolin-7-yl)phenyl)-4,4-dimethyl-1H-imidazol-5(4H)-one] are > 10000 nM, 14.1 nM, 200 nM and ~24 nM.
In the same order, the values of `CC1(c2ccccc2)N=C(c2ccc(-c3ccc4[nH]ccc4c3)cc2)N(C[C@@H]2CCN(C(=O)C3CC3)C2)C1=O` (mixture of isomers) [Compound 7, (4RS)-2-(4-(1H-Indol-5-yl)phenyl)-1-(((R)-1-(cyclopropanecarbonyl)pyrrolidin-3-yl)methyl)-4-methyl-4-phenyl-1H-imidazol-5(4H)-one] are > 10000 nM, 132 nM, 234 nM and 74.1 nM.
Regarding `Cn1cc(-c2ccc(-c3ccc(C4=NC(C)(C)C(=O)N4CC4CN(C(=O)C5CC5)C4)cc3)cc2)cn1` [Compound 17, 1-((1-(cyclopropanecarbonyl)azetidin-3-yl)methyl)-4,4-dimethyl-2-(4′-(1-methyl-1H-pyrazol-4-yl)-[1,1′-biphenyl]-4-yl)-1H-imidazol-5(4H)-one], the IC50 in the assay with A2780 ovarian cells (setting [3]) was > 10000 nM; with A2780 ovarian cells (setting [4]), 2510 nM; in assay [1], 8910 nM; in assay [2], 1820 nM.
In the same order, the values of `CC1(C)N=C(c2ccc(-c3c[nH]c4ccccc34)cc2)N(C[C@@H]2CCN(C(=O)C3CC3)C2)C1=O` [Compound 65, (R)-2-(4-(1H-indol-3-yl)phenyl)-1-((1-(cyclopropanecarbonyl)pyrrolidin-3-yl)methyl)-4,4-dimethyl-1H-imidazol-5(4H)-one] are > 10000 nM, 263 nM, 1260 nM and ~912 nM.
